Experimental data: patent US20230346709A1, “TABLET CONTAINING VALSARTAN AND SACUBITRIL” (ALFRED E. TIEFENBACHER (GMBH & CO. KG), priority 2017, published 2023)

Test: Storage stability of the tablets, solid form of the active ingredients by powder XRD
Type: physicochemical
Conditions: after storage in Alu-Alu blister, three months at 40° C./75% RH
Description: The XRD measurements were performed using X-ray source with Cu K-alpha radiation, Empyrean system (or equivalent), PIXcel detector, divergence slit 0.25° fixed, anti-scattering slit 0.5°, soller slits 2×0.02 radians, Nickel filter to suppress back ground and Cu K-beta components, current 40 mA, voltage 45 kV, 2° - 40 ° 2θ, spinning 30 RPM, step size 0.013° with total measurement time 1 Hr at room temperature. 1. Grind about two tablets to fine powder using Agate mortar and pestle gently. Prepare the sample (approx. 350 mg) using PANalytical sample preparation kit by ‘Back loading technique’. The sample surface should be smooth and in parallel to sample holder surface. Clean the outer edges of the holder with tissue paper to avoid sample contaminations. 2. Place the prepared sample holder carefully on the sample stage of the XRD instrument and analyze as per the above XRD method conditions at room temperature.

Row | change of solid form of the active ingredient in the tablets, powder XRD | Structure (SMILES)
1 | no crystallization | CCCCC(=O)N(Cc1ccc(-c2ccccc2-c2nnn[n-]2)cc1)[C@H](C(=O)[O-])C(C)C.CCOC(=O)[C@H](C)C[C@@H](Cc1ccc(-c2ccccc2)cc1)NC(=O)CCC(=O)[O-].O.[Na+].[Na+].[Na+] [LCZ696]
2 | no polymorph conversion or amorphization | CCOC(=O)[C@H](C)C[C@@H](Cc1ccc(-c2ccccc2)cc1)NC(=O)CCC(=O)O [sacubitril monosodium]
3 | no crystallization | CCCCC(=O)N(Cc1ccc(-c2ccccc2-c2nnn[nH]2)cc1)[C@H](C(=O)O)C(C)C [valsartan disodium]
